Drawing on patent publication US20200399222A1, “PICOLINAMIDES AS FUNGICIDES” (Dow AgroSciences LLC, priority 2018, published 2020), this text covers pest or weed control for 26 compounds.

Read-outs that look alike come from different tables or passages of the source.

The test system of assay [1] is Zymoseptoria tritici. Briefly: Leaf blotch of wheat (SEPTTR) disease control on wheat seedlings. Particulars: High volume application, 100 ppm. The assay is classed as in vivo. Here is the method:
Example A: Evaluation of Fungicidal Activity: Leaf Blotch of Wheat (Zymoseptoria tritici; Bayer Code […]) Technical grades of materials were dissolved in acetone, which were then mixed with nine volumes of water containing 110 ppm Triton X-100. The fungicide solutions were applied onto wheat seedlings using an automated booth sprayer to run-off. All sprayed plants were allowed to air dry prior to further handling. All fungicides were evaluated using the aforementioned method for their activity vs. all target diseases, unless stated otherwise. Wheat leaf blotch and brown rust activity were also evaluated using track spray applications, in which case the fungicides were formulated as EC formulations, containing 0.1% Trycol 5941 in the spray solutions. Wheat plants (variety Yuma) were grown from seed in a greenhouse in 50% mineral soil/50% soil-less Metro mix until the first leaf was fully emerged, with 7-10 seedlings per pot. These plants were inoculated with an aqueous spore suspension of Zymoseptoria tritici either prior to or after fungicide treatments. After inoculation the plants were kept in 100% relative humidity (one day in a dark dew chamber followed by two to three days in a lighted dew chamber at 20° C.) to permit spores to germinate and infect the leaf. The plants were then transferred to a greenhouse set at 20° C. for disease to develop. When disease symptoms were fully expressed on the 1st leaves of untreated plants, infection levels were assessed on a scale of 0 to 100 percent disease severity. Percent disease control was calculated using the ratio of disease severity on treated plants relative to untreated plants.

Assay [2] has as its system Puccinia triticina. Briefly: Wheat brown rust (PUCCRT) disease control on wheat seedlings. In kind it is in vivo. The note with it: High volume application, 100 ppm. Here is the method: Technical grades of materials were dissolved in acetone, which were then mixed with nine volumes of water containing 110 ppm Triton X-100. The fungicide solutions were applied onto wheat seedlings using an automated booth sprayer to run-off. All sprayed plants were allowed to air dry prior to further handling. All fungicides were evaluated using the aforementioned method for their activity vs. all target diseases, unless stated otherwise. Wheat leaf blotch and brown rust activity were also evaluated using track spray applications, in which case the fungicides were formulated as EC formulations, containing 0.1% Trycol 5941 in the spray solutions. Example B: Evaluation of Fungicidal Activity: Wheat Brown Rust (Puccinia triticina; Synonym: Puccinia recondita f. sp. tritici; Bayer Code PUCCRT) Wheat plants (variety Yuma) were grown from seed in a greenhouse in 50% mineral soil/50% soil-less Metro mix until the first leaf was fully emerged, with 7-10 seedlings per pot. These plants were inoculated with an aqueous spore suspension of Puccinia triticina either prior to or after fungicide treatments. After inoculation the plants were kept in a dark dew room at 22° C. with 100% relative humidity overnight to permit spores to germinate and infect the leaf. The plants were then transferred to a greenhouse set at 24° C. for disease to develop. Fungicide formulation, application and disease assessment followed the procedures as described in the Example A.

Where [3] appears, read: 24 h, 1 Day Protectant, read-out: SEPTTR disease control rating, 1DP.
[4] abbreviates: 72 h, 3 Day Curative, read-out: SEPTTR disease control rating, 3DC.
Setting [5] is: 24 h, 1 Day Protectant, read-out: PUCCRT disease control rating, 1DP.
Where [6] appears, read: 72 h, 3 Day Curative, read-out: PUCCRT disease control rating, 3DC.

With `COc1ccnc(C(=O)NCC(=O)O[C@H](C)[C@@H](C)c2ccccc2C)c1O` [Example 125], the pest or weed control at 100 ppm in assay [1] (setting [3]) is < 0%; in assay [1] (setting [4]), < 80%; in assay [2] (setting [5]), < 80%; in assay [2] (setting [6]), < 0%.
For the compound `COc1ccnc(C(=S)N[C@@H](C)C(=O)O[C@@H](C)[C@@H](C)c2ccc(F)cc2C(F)(F)F)c1O` [Example 268], the pest or weed control at 100 ppm in assay [1] (setting [3]) was < 80%; in assay [1] (setting [4]) it was < 80%; in assay [2] (setting [5]), > 80%; in assay [2] (setting [6]) it was < 80%.
As for `COc1ccnc(C(=O)N[C@@H](C)C(=O)O[C@@H](C)[C@@H](C)c2ccc(C)s2)c1O` [Example 172], the pest or weed control at 100 ppm is < 80% in assay [1] (setting [3]), < 80% in assay [1] (setting [4]), < 80% in assay [2] (setting [5]) and > 80% in assay [2] (setting [6]).
As for `COc1ccnc(C(=O)N[C@@H](C)C(=O)O[C@H](C)[C@H](C)c2ccc(F)cc2C(F)(F)F)c1O` [Example 162], the pest or weed control at 100 ppm in assay [1] (setting [3]) was < 80%; in assay [1] (setting [4]), < 80%; in assay [2] (setting [5]) it was < 0%; in assay [2] (setting [6]) it was < 0%.
As for `COc1ccnc(C(=O)N[C@H](C(=O)O[C@H](C)[C@H](C)c2ccc(F)cc2C)C(C)C)c1O` [Example 143], the pest or weed control at 100 ppm in assay [1] (setting [3]) was < 80%; in assay [1] (setting [4]), < 80%; in assay [2] (setting [5]) it was > 80%; in assay [2] (setting [6]), < 0%.
In the case of `COc1ccnc(C(=O)N[C@@H](C)C(=O)OC(C)C(C)c2c(C)cc(F)cc2C)c1O` (some centres unmarked) [Example 165], the pest or weed control at 100 ppm in assay [1] (setting [3]), in assay [1] (setting [4]), in assay [2] (setting [5]) and in assay [2] (setting [6]) was > 80% throughout.
Consider `COc1ccc([C@@H](C)[C@@H](C)OC(=O)[C@@H](NC(=O)c2nccc(OC)c2O)C(C)C)c(C)c1` [Example 147], for which the pest or weed control at 100 ppm in assay [1] (setting [3]) was > 80%; in assay [1] (setting [4]), < 80%; in assay [2] (setting [5]) it was > 80%; in assay [2] (setting [6]), < 80%.
For `COc1ccnc(C(=O)N[C@@H](C)C(=O)O[C@@H](C)[C@H](C)c2ccccc2C)c1O` [Example 130], the pest or weed control at 100 ppm in assay [1] (setting [3]) was < 80%; in assay [1] (setting [4]), < 80%; in assay [2] (setting [5]), > 80%; in assay [2] (setting [6]), > 80%.
As to `COc1cc(F)ccc1[C@@H](C)[C@@H](C)OC(=O)[C@H](C)NC(=O)c1nccc(OC)c1O` [Example 173], the pest or weed control at 100 ppm in assay [1] (setting [3]) is < 80%; in assay [1] (setting [4]), < 80%; in assay [2] (setting [5]), > 80%; in assay [2] (setting [6]) it was < 80%.
Regarding `COc1ccnc(C(=O)NCC(=O)O[C@H](C)[C@H](C)c2ccc(F)cc2C)c1O` [Example 123], the pest or weed control at 100 ppm in assay [1] (setting [3]) was < 0%; in assay [1] (setting [4]) it was < 80%; in assay [2] (setting [5]) it was > 80%; in assay [2] (setting [6]), < 80%.
With `COc1ccnc(C(=O)N[C@H](C(=O)O[C@H](C)[C@@H](C)c2ccccc2C)C(C)C)c1O` [Example 145], the pest or weed control at 100 ppm in assay [1] (setting [3]), in assay [1] (setting [4]), in assay [2] (setting [5]) and in assay [2] (setting [6]) was < 80% each time.
Turning to `COc1ccnc(C(=O)N[C@@H](C)C(=O)O[C@H](C)[C@H](C)c2ccc(F)cc2)c1O` [Example 136], the pest or weed control at 100 ppm in assay [1] (setting [3]) is < 80%; in assay [1] (setting [4]), < 80%; in assay [2] (setting [5]), > 80%; in assay [2] (setting [6]), < 80%.
With `COc1ccnc(C(=O)N[C@@H](C)C(=O)O[C@@H](C)[C@H](C)c2ccc(F)cc2C)c1O` [Example 129], the pest or weed control at 100 ppm was < 80% in assay [1] (setting [3]), < 80% in assay [1] (setting [4]), > 80% in assay [2] (setting [5]) and < 80% in assay [2] (setting [6]).
`COc1ccnc(C(=S)N[C@@H](C)C(=O)O[C@@H](C)[C@@H](C)c2ccccc2C(F)(F)F)c1O` [Example 267]: the pest or weed control at 100 ppm is < 80% in assay [1] (setting [3]), < 80% in assay [1] (setting [4]), > 80% in assay [2] (setting [5]) and < 80% in assay [2] (setting [6]).
`COc1ccnc(C(=O)N[C@@H](C)C(=O)O[C@H](C)[C@H](C)c2c(C)cccc2C)c1O` [Example 168]: the pest or weed control at 100 ppm in assay [1] (setting [3]) was < 80%; in assay [1] (setting [4]) it was > 80%; in assay [2] (setting [5]), > 80%; in assay [2] (setting [6]), > 80%.
Consider `COc1ccnc(C(=O)N[C@H](C(=O)O[C@H](C)[C@H](C)c2ccc(F)cc2)C(C)C)c1O` [Example 146], for which the pest or weed control at 100 ppm was > 80% in assay [1] (setting [3]), < 80% in assay [1] (setting [4]), > 80% in assay [2] (setting [5]) and < 80% in assay [2] (setting [6]).
`COc1ccnc(C(=O)N[C@@H](C)C(=O)O[C@@H](C)[C@@H](C)c2ccc(C)cc2C)c1O` [Example 116]: the pest or weed control at 100 ppm in assay [1] (setting [3]) is < 80%; in assay [1] (setting [4]), > 80%; in assay [2] (setting [5]) it was > 80%; in assay [2] (setting [6]), > 80%.
On to `COc1ccnc(C(=O)N[C@@H](C)C(=O)O[C@@H](C)[C@@H](C)c2ccccc2)c1O` [Example 171], for which the pest or weed control at 100 ppm in assay [1] (setting [3]) was < 80%; in assay [1] (setting [4]) it was < 80%; in assay [2] (setting [5]), > 80%; in assay [2] (setting [6]), > 80%.
Consider `COc1ccnc(C(=O)N[C@H](C)C(=O)O[C@H](C)[C@@H](C)c2ccc(F)cc2C)c1O` [Example 154], for which the pest or weed control at 100 ppm is < 80% in assay [1] (setting [3]), < 80% in assay [1] (setting [4]), < 0% in assay [2] (setting [5]) and < 0% in assay [2] (setting [6]).
In the case of `COc1ccnc(C(=O)N[C@H](C)C(=O)O[C@@H](C)[C@H](C)c2ccc(F)cc2C)c1O` [Example 149], the pest or weed control at 100 ppm in assay [1] (setting [3]) was < 80%; in assay [1] (setting [4]), < 80%; in assay [2] (setting [5]), < 0%; in assay [2] (setting [6]), < 0%.
`COc1ccc([C@H](C)[C@H](C)OC(=O)[C@H](C)NC(=O)c2nccc(OC)c2O)c(C)c1` [Example 132]: the pest or weed control at 100 ppm is > 80% in assay [1] (setting [3]), < 80% in assay [1] (setting [4]), > 80% in assay [2] (setting [5]) and > 80% in assay [2] (setting [6]).
With `COc1ccnc(C(=O)N[C@H](C)C(=O)O[C@H](C)[C@H](C)c2ccc(F)cc2C)c1O` [Example 153], the pest or weed control at 100 ppm in assay [1] (setting [3]), in assay [1] (setting [4]), in assay [2] (setting [5]) and in assay [2] (setting [6]) was < 80% throughout.
For `COc1ccnc(C(=O)N[C@@H](C)C(=O)O[C@H](C)[C@H](C)c2ccc(F)cc2C)c1O` [Example 133], the pest or weed control at 100 ppm in assay [1] (setting [3]) is < 80%; in assay [1] (setting [4]), < 80%; in assay [2] (setting [5]), > 80%; in assay [2] (setting [6]) it was < 80%.
`COc1ccnc(C(=O)N[C@@H](C)C(=O)O[C@@H](C)[C@@H](C)c2ccc(N(C)C)cc2)c1O` [Example 176]: the pest or weed control at 100 ppm is < 0% in assay [1] (setting [3]), < 80% in assay [1] (setting [4]), > 80% in assay [2] (setting [5]) and < 80% in assay [2] (setting [6]).
Consider `COc1ccnc(C(=O)N[C@@H](C)C(=O)O[C@@H](C)[C@@H](C)c2ccc(F)cc2)c1O` [Example 131], for which the pest or weed control at 100 ppm in assay [1] (setting [3]) is < 80%; in assay [1] (setting [4]), < 80%; in assay [2] (setting [5]), > 80%; in assay [2] (setting [6]), > 80%.
For the compound `COc1ccnc(C(=O)NCC(=O)O[C@H](C)[C@H](C)c2ccc(F)cc2)c1O` [Example 126], the pest or weed control at 100 ppm in assay [1] (setting [3]) is < 0%; in assay [1] (setting [4]) it was < 80%; in assay [2] (setting [5]) it was > 80%; in assay [2] (setting [6]), < 80%.
